Source: paper PMC11434960, “Evaluation of [^68Ga]Ga-DOTA-AeK as a Potential Imaging Tool for PET Imaging of Cell Wall Synthesis in Bacterial Infections” (Pharmaceuticals, 2024)
Entries after “also recorded” stand apart in the source; their conditions may differ. Where two headings read alike, the source gives them in different places. Starred links: 1 amine or outer side, 2 acyl side, 3 side chain; linkers in the order of their positions; H or OH if unused. Non-standard residues stand in square brackets, D forms with d. Residues, ends and D or L forms follow the SMILES beside them. *: point of attachment. DOTA = O=C(O)CN1CCN(CC(=O)O)CCN(CC(=O)*)CCN(CC(=O)O)CC1; d(γGlu) = O=C(O)[C@@H](CCC(=O)[*:2])N[*:1]

Assays:
S. aureus [1] = experiment: Bacterial cell uptake of radiotracer in live and heat-killed cultures; format: cell-based, Staphylococcus aureus; settings: 37 °C
Method: (§1) Overnight bacterial cell cultures of E. coli or S. aureus were grown in Tryptic Soy Broth (TSB) medium at 37 °C. The […] McFarland standard was prepared using DEN-18 McFarland Densitometer (Biosan, Riga, Latvia). For control studies, the same amount of bacterial culture was heat-killed via 30 min incubation at 90 °C. The culture viability was confirmed using agar plating with overnight incubation. All tests were initiated by adding 4.1 ± 1.23 MBq of [^68Ga]Ga-DOTA-AeK product solution (4.86 ± 1.45 GBq/µmol) to 1.0 mL of the bacterial suspension (1.8 × 10^8 cells/mL), and mixtures were maintained while shaking at 37 °C. At specific time intervals (10, 60, and 120 min), samples of the suspension were centrifuged at 16,211 g for 10 min (Digicen 21R, United Scientific, Goodwood, South Africa), and the supernatant was transferred into a plastic tube. The pellet was washed with 3 mL of PBS (140 mM sodium chloride, 10 mM phosphate buffer, and 3 mM potassium chloride, pH 7.4) and centrifuged at 16,211 g for 10 min. […] The radioactivity in the supernatant and pellet fraction were measured using an automatic gamma counter (Hidex AMG, LabLogic, Turku, Finland). The percentile of [^68Ga]Ga-DOTA-AeK cell uptake was calculated as follows:Uptake (%) = [counts in cell pellet ÷ total counts (cell pellet + supernatants)] × 100(3)

[2] = format: in vitro ADME
Method: The plasma protein binding filter assay described by Müller et al. was adopted. Before the experiment, Amicon® Ultra-0.5 centrifugal 10 kDa MWCO filter units (Merck, Darmstadt, Germany) were pre-washed with 200 µL of phosphate-buffered saline (PBS) for 20 min at 18,611 g using the Microfuge 16 centrifuge (Beckman Coulter Life Sciences, Brea, CA, USA). Subsequently, 800 µL of plasma was spiked with 200 µL of purified [^68Ga]Ga-DOTA-AeK, vortexed for 3 s, and incubated for 120 min at 37 °C. For radioanalysis, a 100 µL plasma sample was taken at different time intervals (30, 60, and 120 min), diluted (1:1) with PBS, aliquoted into filter units, and centrifuged at 14,800 rpm for 20 min. A similar procedure was carried out in PBS (140 mM NaCl, 10 mM phosphate buffer, and 3 mM KCl, pH 7.4) as a control. After centrifugation, each filter unit was washed by adding 100 µL of PBS (140 mM NaCl, 10 mM phosphate buffer, and 3 mM KCl, at pH 7.4, and centrifuged as described above. The counts of the filtrate fraction (representing unbound compound) and on the filter (protein-bound compound) were measured using a Capintec Captus 4000E well counter (Florham Park, NJ, USA). The percentage of the protein-bound radiotracer was calculated using the following equation:% Protein bound = [counts in filter ÷ total counts (filtrate fraction+ filter)] × 100(2)

[3] = format: physicochemical
Method: The compound hydrophobicity was determined using the octanol–water partition coefficient “shake flask method” described by Lambidis et al.. In brief, 100 µL of purified [^68Ga]Ga-DOTA-AeK was added to 400 µL of ultrapure water. The aqueous solution was added to an equal volume of 1-octanol (Sigma-Aldrich, Darmstadt, Germany), and the mixture was mechanically shaken for approximately 3 min at room temperature. The sample was centrifuged at 16,211 g for 5 min using a Digicen 21 R centrifuge (Orto Alresa, Madrid, Spain). The aqueous and organic phases of the sample were separated, and samples from each phase were analyzed using a dose calibrator. The logarithmic partition coefficient, Log P, was calculated using the following formula:Log P = Log [(counts in octanol/counts in water)](1)

[4] = format: in vivo, BALB/c mice; settings: mouse, in vivo, iv, Ex vivo organ biodistribution
Method: (§2) Six-to-eight-week-old mixed-gender BALB/c mice (20.0 ± 2.1 g) were utilized. Animals were pre-grouped (two mice/cage) into individually ventilated cages (IVC, Tecniplast, Buguggiate, Italy) and kept under standard housing conditions (22 ± 2 °C, 55 ± 10% humidity, 15 ± 5 Pa, and 12 h light/dark cycles) with food and water being provided ad libitum. Each experimental group consisted of 5 animals.
(§3) A thigh muscle mouse model of infection and inflammation was developed for imaging purposes by adopting procedures from a previous study with some modifications. In brief, animals were inoculated intramuscularly (right hind leg) with 1.5 × 10^7 colony forming units (CFU)/mL of S. aureus or E. coli suspended in 100 µL of culture media. To induce sterile inflammation, the same mice received 100 µL of a turpentine oil solution intramuscularly into the left hind leg. Infection was allowed to develop for 3–5 days, which is typical for a model of chronic infections, and a health check, including monitoring of the infection and inflammation sites, was conducted. At 3 and 5 days after the inoculations, all animals underwent whole-body [^68Ga]Ga-DOTA-AeK microPET/CT imaging, and after euthanasia, a complete ex vivo organ tissue biodistribution radioactive assay was performed.
(§4) A total volume of 100 µL of [^68Ga]Ga-DOTA-AeK (7.4 ± 2.0 MBq, 5% EtOH/PBS, pH 7.0) was administered as an intravenous bolus via the tail vein. At the same time, the animals were kept anesthetized, (4% isoflurane in oxygen for induction and 1.5–2.5% for maintenance). Non-invasive, whole-body microPET/CT imaging was performed using a Mediso nanoScan® PET/CT scanner (Budapest, Hungary). A previously described, image acquisition was performed. The PET/CT imaging procedure consisted of static whole-body scans per animal commencing at 60 min post-injection. The imaging protocol included the X-ray topogram (30 s) to ascertain the correct animal placement followed by CT image acquisition (4–5 min) and 20 min long PET image acquisition. Image reconstruction and analysis were performed as previously described.
(§5) After PET/CT imaging, the mice were euthanized via cervical dislocation while still under anesthesia. The different organs (spleen, pancreas, stomach, intestine, kidneys, liver, heart, lung, muscle, and femur) were collected into pre-weighed tubes. The radioactivity of each sample was determined using an automatic gamma counter (Hidex AMG, Turku, Finland). Results were expressed as a percentage of injected dose per gram organ (%ID/g). Subsequently, both muscles on the left and right thighs were fixed in 4% paraformaldehyde and submitted to the University of Pretoria, Department of Paraclinical Science, for hematoxylin and eosin (H&E) and Gram staining. Infection and inflammation tissue analysis was performed by a qualified pathologist.

S. aureus [5] = format: in vivo, BALB/c mice
Method: as §2, §3, §4, §5

E. coli [6] = format: in vivo, BALB/c mice
Method: as §2, §3, §4, §5

[7] = format: in vivo, BALB/c mice; settings: mouse, in vivo, iv, Ex vivo organ biodistribution; remark: listed apart in the source
Method: as §2, §3, §4, §5

E. coli [8] = experiment: Bacterial cell uptake of radiotracer in live and heat-killed cultures; format: cell-based, Escherichia coli; settings: 37 °C
Method: as §1

S. aureus [9] = experiment: Bacterial uptake and incorporation of AeK-NBD, flow cytometry; format: cell-based, Staphylococcus aureus
Method: (§6) Bacterial cell cultures (either live or heat-killed) of E. coli or S. aureus (1.0 McFarland standard) were prepared as described above. For bacterial staining, 2.0 μL (100 mM in DMSO) of fluorescent AeK-NBD was added to 198 μL of bacterial culture (7.7 × 10^7 cells/mL), and cells were counterstained with 2.0 μL (10 μM in DMSO) of membrane-permeable DNA Vybrant DyeCycle (VDC) Ruby dye (Thermo Fisher Scientific, Waltham, MA, USA). All cultures were incubated at 37 °C, and samples were taken at different intervals (10, 30, and 60 min) to perform flow cytometric analysis (Cytoflex, Beckman Coulter Life Sciences, Brea, CA, USA). AeK-NBD was excited with a 488 nm laser, and the emitted fluorescence was collected using a 540/30 nm band pass filter, as carried out previously. The VDC Ruby dye was excited with a 638 nm laser, and the emitted fluorescence was collected using a 712/25 nm band pass filter. No noticeable spillover was observed when VDC Ruby ‘only’ and AeK-NBD ‘only’ controls were used as controls for possible fluorescence spillover. […] The NBD-AeK median fluorescence intensity (MFI) of VDC Ruby-positive bacteria was reported. […]
(§7) Sample preparation of E. coli and S. aureus suspensions for confocal fluorescence microscopy imaging involved immediate staining with AeK-NBD and membrane-permeable DNA VDC Ruby dye for 10 min, as described in the previous section. […]

E. coli [10] = experiment: as above; format: cell-based, Escherichia coli
Method: as §6, §7

E. coli [11] = tested on: E. coli; design: method as in PMID 3891732; settings: in vitro; cited from earlier work

For `C[C@H](N)C(=O)N[C@H](CCC(=O)N[C@@H](CCCCNC(=O)CN1CCN(CC(=O)O)CCN(CC(=O)O)CCN(CC(=O)O)CC1)C(=O)O)C(=O)O` [[^68Ga]Ga-DOTA-AeK, metal not drawn] (H-Ala-[d(γGlu)]-Lys(DOTA)-OH), the “cellular uptake, live versus heat-killed bacteria” value (S. aureus [1]; any time point up to 120 min) was “No significant increase in radioactivity above the heat-killed bacterial cells”, the “radiotracer detected in the medium” value (S. aureus [1]; up to 120 min) was ~ 98% and the protein-bound fraction [2] was “approximately 10.18 ± 6.9%”. For the same compound, the logP [3] was -1.08, the “tracer recovered within the aqueous phase” value ([3]; octanol/water partition, n = 3) was 92.3 ± 0.04% and the tissue uptake at 1 h ([4]; Brain) was 0.1 %ID/g. For the same compound, the tissue uptake at 1 h ([4]; Intestines) was 1.2 ± 1.9 %ID/g, the tissue uptake at 1 h ([4]; Stomach) was 0.7 ± 0.5 %ID/g and the “uptake in the infectious foci (PET/CT and ex vivo tissue counting)” value (S. aureus [5]; S. aureus, Day 3 and Day 5 post-inoculation, 60 min after iv injection) was “no significant uptake in the infectious foci”. For the same compound, the clearance route (S. aureus [5]; mouse, in vivo) was “rapid clearance mainly via renal excretion”, the “Ex vivo organ biodistribution, Adipose” value (S. aureus [5]; mouse, in vivo, iv, 1 h) was 1.9 ± 0.3 %ID/g and the “Ex vivo organ biodistribution, Brain” value (S. aureus [5]; mouse, in vivo, iv, 1 h) was 0.2 ± 0.0 %ID/g. The “Ex vivo organ biodistribution, Femur” value (S. aureus [5]; mouse, in vivo, iv, 1 h) was 2.0 ± 0.2 %ID/g, the “Ex vivo organ biodistribution, Heart” value (S. aureus [5]; mouse, in vivo, iv, 1 h) was 3.7 ± 0.5 %ID/g and the “Ex vivo organ biodistribution, Infection” value (S. aureus [5]; mouse, in vivo, iv, 1 h) was 0.9 ± 0.3 %ID/g. The “Ex vivo organ biodistribution, Intestines” value (S. aureus [5]; mouse, in vivo, iv, 1 h) was 1.8 ± 0.8 %ID/g, the “Ex vivo organ biodistribution, Kidneys” value (S. aureus [5]; mouse, in vivo, iv, 1 h) was 7.0 ± 0.1 %ID/g and the “Ex vivo organ biodistribution, Pancreas” value (S. aureus [5]; mouse, in vivo, iv, 1 h) was 2.3 ± 0.2 %ID/g. The “Ex vivo organ biodistribution, Spleen” value (S. aureus [5]; mouse, in vivo, iv, 1 h) was 1.6 ± 0.6 %ID/g, the “Ex vivo organ biodistribution, Stomach” value (S. aureus [5]; mouse, in vivo, iv, 1 h) was 1.1 ± 0.4 %ID/g and the “uptake in the infectious foci (PET/CT and ex vivo tissue counting)” value (E. coli [6]; E. coli, Day 3 and Day 5 post-inoculation, 60 min after iv injection) was “no significant uptake in the infectious foci”. The clearance route (E. coli [6]; mouse, in vivo) was “rapid clearance mainly via renal excretion”, the “Ex vivo organ biodistribution, Brain” value (E. coli [6]; mouse, in vivo, iv, 1 h) was 0.2 ± 0.2 %ID/g and the “Ex vivo organ biodistribution, Heart” value (E. coli [6]; mouse, in vivo, iv, 1 h) was 1.6 ± 1.3 %ID/g. The “Ex vivo organ biodistribution, Kidneys” value (E. coli [6]; mouse, in vivo, iv, 1 h) was 2.9 ± 0.7 %ID/g, the “Ex vivo organ biodistribution, Liver” value (E. coli [6]; mouse, in vivo, iv, 1 h) was 1.2 ± 0.4 %ID/g and the “Ex vivo organ biodistribution, Lungs” value (E. coli [6]; mouse, in vivo, iv, 1 h) was 2.0 ± 0.4 %ID/g. It also gave a tissue uptake at 1 h ([7]; Brain) of 0.1 %ID/g, a tissue uptake at 1 h ([7]; Heart) of 0.8 ± 0.4 %ID/g and a tissue uptake at 1 h ([7]; Inflammation) of 0.9 %ID/g. The tissue uptake at 1 h ([7]; Liver) was 1.1 ± 0.2 %ID/g, the tissue uptake at 1 h ([7]; Lungs) was 1 ± 0.1 %ID/g and the tissue uptake at 1 h ([7]; Muscle) was 0.7 ± 0.4 %ID/g. For the same compound, the tissue uptake at 1 h ([7]; Pancreas) was 0.6 ± 0.3 %ID/g, the tissue uptake at 1 h ([7]; Thyroid) was 1 ± 0.7 %ID/g and the “cellular uptake, live versus heat-killed bacteria” value (E. coli [8]; any time point up to 120 min) was “No significant increase in radioactivity above the heat-killed bacterial cells”. For the same compound, the “radiotracer detected in the medium” value (E. coli [8]; up to 120 min) was ~ 98%.
In the case of “L-Ala-γ-D-Glu-L-Lys-N-7-nitro-2,1,3-benzoxadiazol-4-yl [AeK-NBD]”, the “time at which bacterial incorporation was observed” value (S. aureus [9]; S. aureus, 37 °C) is reported as 10 min, the “fluorescence intensity in live cells (flow cytometry)” value (S. aureus [9]; live S. aureus, significantly decreased in heat-killed cultures (p < 0.05), up to 60 min) is reported as “high fluorescence intensity” and the “time at which bacterial incorporation was observed” value (E. coli [10]; E. coli, 37 °C) is reported as 10 min. The “fluorescence intensity in live cells (flow cytometry)” value (E. coli [10]; live E. coli, significantly decreased in heat-killed cultures (p < 0.05), up to 60 min) was “high fluorescence intensity”.
For L-Ala-γ-D-Glu-[^3H]A2pm, the “bacterial uptake / utilisation in PG recycling pathway” value (E. coli [11]) is given as “successful in vitro integration; also recorded: effectively utilized by E. coli”.
For “^3H-labeled disaccharide-(L-Ala-D-Glu-meso-A2pm) tripeptide”, the “bacterial uptake / utilisation in PG recycling pathway” value (E. coli [11]) is listed as “lack of bacterial uptake and internalization”.
